Like-named read-outs stand apart in the source and are kept apart here.
Columns and labels:
[1] = test system: hepatocytes HepG2; test: Inhibition of hepatic gluconeogenesis (glucose synthesis); settings: known inhibitors of gluconeogenesis; concentration not given
[2] = test system: myocytes C2C12; test: Glucose consumption (utilization) by myocytes C2C12; assay type: cell-based, mouse; settings: 50 µM (highest tested concentration); 24 h
Experimental: (§1) The myocyte C2C12 cell line (ATCC CRL-1772), a subclone of myoblasts from mouse muscles, was cultured according to standard protocol in DMEM supplemented with 10% fetal calf serum, 100 IU/ml penicillin, and […] streptomycin at 37 °C in 5% CO2. Cells were pleated on a 96-well microplate and after reach confluence were differentiated in medium with 2% horse serum. Differentiation medium was changed every 72 h.
Differentiated myocytes C2C12 were used after 8 days of differentiation. The culture medium was changed for medium with 0.2% bovine serum albumin, 100 IU/mL penicillin, and 100 µg/mL streptomycin, and after 2 hours of incubation, the medium was changed to fresh medium containing the tested compounds. […]
Glucose concentration was determined based on enzymatic reaction with glucose oxidase and fluorometrically detection reaction end product using an AmplexRed Glucose/Glucose Oxidase Kit (Thermo Fisher Scientific) according to the manufacturer’s protocol. […] Fluorescence signal was measured at excitation of 530 nm and emission of 580 nm using a multimodal microplate reader POLARStar Omega (BMG Labtech), and glucose concentration in samples was calculated in MARS Data Analysis Software version 3.02.R2 (BMG Labtech) based on glucose standards. […] The final results were expressed as the percent of controls containing cells and solvent only.

[3] = test system: myocytes C2C12; test: Scintillation proximity assay, transport of [14C]-deoxy-D-glucose into myocytes C2C12; assay type: cell-based, mouse
Experimental: as §1
Scintillation proximity assay (SPA) is a method to measure the real-time accumulation of radiolabeled substrates by adherent cells with no filtration needed. Radioactivity concentrated closer to the scintillator embedded in the plastic bottom of each well provides a stronger signal than the radiolabeled substrate in the culture medium. Uptake of radiolabeled 2-deoxy-D-[U-14C]-glucose was conducted based on previous descriptions.
(§2) After 24 h incubation, the tested complexes were added. After 2 h incubation at 37 °C in 5% CO2, the medium was changed to low-glucose medium (1000 mg/L), and the tested complexes were added again, with further incubation for 4 h being conducted.
(§3) For cells proceeded as above, 2-deoxy-D-[U-14C]-glucose (250–350 mCi/mmol, NEC720A, PerkinElmer) solution in KRB with a total activity of 0.03 mCi was added to each well. […] Non-specific radioactivity was subtracted from each result (cpm). Two independent experiments with triplicates were conducted.

[4] = molecular target: T1, PTP1B (Homo sapiens, UniProt P18031); test: Inhibition of human recombinant tyrosine phosphatase PTP1B (DiFMUP fluorescence); assay type: biochemical; settings: 1 µM; control solvent only; SD did not exceed 6%
T1 construct: purchased Sigma-Aldrich
T1 sequence (P18031 1-435): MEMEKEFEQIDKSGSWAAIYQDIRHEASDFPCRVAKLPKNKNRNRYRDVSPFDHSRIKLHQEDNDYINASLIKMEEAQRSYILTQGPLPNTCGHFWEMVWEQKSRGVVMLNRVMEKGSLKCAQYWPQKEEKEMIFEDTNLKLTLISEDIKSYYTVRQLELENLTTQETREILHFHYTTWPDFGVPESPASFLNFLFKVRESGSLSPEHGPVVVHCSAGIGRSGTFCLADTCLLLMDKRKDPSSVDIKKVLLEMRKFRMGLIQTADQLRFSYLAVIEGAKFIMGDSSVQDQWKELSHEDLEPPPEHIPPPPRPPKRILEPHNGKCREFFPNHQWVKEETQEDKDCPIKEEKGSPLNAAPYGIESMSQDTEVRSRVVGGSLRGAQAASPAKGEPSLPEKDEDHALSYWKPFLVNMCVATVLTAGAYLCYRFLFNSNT
Experimental: (§4) To determine the ability of the tested compounds for inhibition tyrosine phosphatases, human recombinant proteins were used (Sigma-Aldrich). The reactions were performed in black opaque 384-well microplates (PerkinElmer, Waltham, MA, USA). An equal volume of phosphatase solution in a reaction buffer (25 mM of 3-(N-morpholino)propanesulfonic acid (MOPS), 50 mM NaCl, 1 mM dithiothreitol (DTT), and 0.05% Tween-20 (pH 7.0)) was added to the solution of the tested compound on microplate. These solutions were dispensed using an automated injector. The following final concentrations of the tested phosphatases were used: PTP1B 50 ng/mL, SHP1 400 ng/mL, SHP2 50 ng/mL, LAR 5 ng/mL, and PTPRA 100 ng/mL. After 10 min, a solution of phosphate 6,8-difluoro-4-methyl (DiFMUP; Thermo Fisher Scientific) was added until its final concentration was 0.1 mM. Samples were incubated for 20 miN at 23 °C, and then the measurements of fluorescence intensity (excitation 355 and emission […]) were performed on a multifunctional plate reader POLARstar Omega (BMG Labtech, Ortenberg, Germany). Assays were performed in triplicate. For the screening assays, the final concentration of the tested compounds was 1 µM. The results were expressed as percent inhibition of untreated control (enzyme with vehicle only) for the screening tests. […] IC50 were calculated using GraphPad Prism version 6.0 software (GraphPad Software, Boston, MA, USA).

[5] = molecular target: T2, LAR (Homo sapiens, UniProt P10586); test: Inhibition of human recombinant tyrosine phosphatase LAR (DiFMUP fluorescence); assay type: biochemical; settings: 1 µM; control solvent only; SD did not exceed 6%
T2 sequence (P10586 1352-1607 limits assumed): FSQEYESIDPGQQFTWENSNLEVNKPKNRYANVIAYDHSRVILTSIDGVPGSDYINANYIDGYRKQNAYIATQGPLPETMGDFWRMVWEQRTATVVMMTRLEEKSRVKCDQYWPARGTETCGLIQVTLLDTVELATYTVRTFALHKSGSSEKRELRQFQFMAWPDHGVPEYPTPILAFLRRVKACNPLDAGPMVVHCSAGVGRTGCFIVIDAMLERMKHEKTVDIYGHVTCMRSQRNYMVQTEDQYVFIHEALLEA
Experimental: as §4

[6] = molecular target: T3, SHP2 (Homo sapiens, UniProt Q06124); test: Inhibition of human recombinant tyrosine phosphatase SHP2 (DiFMUP fluorescence); assay type: biochemical; settings: 1 µM; control solvent only; SD did not exceed 6%
T3 construct: purchased Sigma-Aldrich
T3 sequence (Q06124 1-593): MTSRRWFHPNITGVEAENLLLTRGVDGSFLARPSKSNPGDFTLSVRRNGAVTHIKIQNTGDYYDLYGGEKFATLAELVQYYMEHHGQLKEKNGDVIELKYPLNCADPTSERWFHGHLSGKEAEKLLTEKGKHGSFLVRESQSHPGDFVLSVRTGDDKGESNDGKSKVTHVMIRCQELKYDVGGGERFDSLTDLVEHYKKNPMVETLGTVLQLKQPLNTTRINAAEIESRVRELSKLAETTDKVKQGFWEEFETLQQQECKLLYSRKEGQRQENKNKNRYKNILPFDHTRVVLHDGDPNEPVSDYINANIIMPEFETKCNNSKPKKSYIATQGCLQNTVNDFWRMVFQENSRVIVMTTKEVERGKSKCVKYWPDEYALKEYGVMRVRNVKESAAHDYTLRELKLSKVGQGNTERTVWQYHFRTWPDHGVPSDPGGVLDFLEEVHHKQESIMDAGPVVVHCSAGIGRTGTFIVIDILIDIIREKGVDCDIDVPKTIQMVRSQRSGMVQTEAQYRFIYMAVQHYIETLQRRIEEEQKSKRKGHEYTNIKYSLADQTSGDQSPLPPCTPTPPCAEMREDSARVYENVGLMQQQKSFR
Experimental: as §4

[7] = molecular target: T4, SHP1 (Homo sapiens, UniProt P29350); test: Inhibition of human recombinant tyrosine phosphatase SHP1 (DiFMUP fluorescence); assay type: biochemical; settings: 1 µM; control solvent only; SD did not exceed 6%
T4 construct: purchased Sigma-Aldrich
T4 sequence (P29350 whole entry): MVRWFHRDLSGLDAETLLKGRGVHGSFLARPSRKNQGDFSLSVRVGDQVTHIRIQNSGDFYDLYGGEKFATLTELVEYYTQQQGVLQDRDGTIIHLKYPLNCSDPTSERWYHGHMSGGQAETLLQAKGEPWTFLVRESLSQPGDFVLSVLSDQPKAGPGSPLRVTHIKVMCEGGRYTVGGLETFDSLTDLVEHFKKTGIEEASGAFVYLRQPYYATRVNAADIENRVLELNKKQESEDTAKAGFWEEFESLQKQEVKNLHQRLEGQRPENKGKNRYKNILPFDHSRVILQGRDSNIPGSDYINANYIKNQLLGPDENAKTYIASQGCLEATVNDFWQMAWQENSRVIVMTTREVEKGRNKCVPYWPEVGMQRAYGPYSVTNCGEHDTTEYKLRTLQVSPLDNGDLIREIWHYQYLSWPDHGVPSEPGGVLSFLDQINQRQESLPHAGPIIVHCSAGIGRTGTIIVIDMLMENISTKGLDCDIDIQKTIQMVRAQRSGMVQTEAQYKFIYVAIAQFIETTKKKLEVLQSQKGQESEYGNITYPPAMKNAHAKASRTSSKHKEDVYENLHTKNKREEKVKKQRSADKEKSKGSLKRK
Experimental: as §4

[8] = test system: myocytes C2C12; test: Viability of myocytes C2C12 after 24 h incubation (resazurin-based reagent); settings: 50 µM
Experimental: Simultaneously with glucose consumption tests, the viability of myocytes C2C12 was examined due to their prolonged 24 h incubation with vanadium complexes.
Prolonged incubation of the cells with vanadium complexes, as was the case during the study of the effect on glucose consumption, more closely corresponds to the actual conditions of clinical use, also allowing for the identification of possible cytotoxic effects. […] A Resazurin-based reagent is reduced proportionally to the metabolic activity of cells as a result of the transference of electrons from NADPH+H^+, the amount of which strictly depends on glucose metabolism.

[9] = test system: hepatocytes HepG2; test: Transport of [14C]-deoxy-D-glucose into insulin-resistant hepatocytes (TNF or oleic acid); assay type: cell-based, human; settings: 10 µM; p ≤ 0.05
Experimental: as §2, §3
Next, the compounds in fresh medium were added, further incubation was carried out for 24 h, and the scintillation proximity assay for the uptake of radiolabeled 2-deoxy-D-[U-14C]-glucose was conducted as described in the section above.

[10] = test system: myocytes C2C12; set-up: method as in doi:10.1016/j.poly.2020.114589; settings: 50 µM; previously published by the authors; cited from earlier work

| Compound | Inhibition of glucose synthesis by hepatocytes, experimental control compounds [1] | Glucose consumption by myocytes C2C12, % of the control [2] | Transport of [14C]-deoxy-D-glucose into C2C12 myocytes, % of the control ([3]; 50 µM, control solvent only) | Transport of [14C]-deoxy-D-glucose into C2C12 myocytes ([3]; 10 and 1 µM) | Inhibition of PTP1B, percentage of inhibition of the control [4] [%] | Inhibition of LAR, percentage of inhibition of the control [5] [%] | Inhibition of SHP2, percentage of inhibition of the control [6] [%] | Inhibition of SHP1, percentage of inhibition of the control [7] [%] | Cell viability of myocytes C2C12, % of the control [8] [%] | Reversal of decreased [14C]-deoxy-D-glucose transport, insulin resistance induced by oleic acid [9] | Transport of [14C]-deoxy-D-glucose into C2C12 myocytes, % of the control [10] |
| --- | --- | --- | --- | --- | --- | --- | --- | --- | --- | --- | --- |
| NC(=O)c1ncn([C@@H]2O[C@H](CO)[C@@H](O)[C@H]2O)c1N [AICAR, 5-aminoimidazole-4-carboxamide riboside] | showed inhibition of glucose synthesis |  |  |  |  |  |  |  |  |  |  |
| O.O=C(NN=Cc1cc(Br)ccc1[O][V]1[O]C(c2ccccc2)=NN=Cc2cc(Br)ccc2[O]1)c1ccccc1 [VC032, [V(L8)(HL8)]⋅H2O] |  | No statistically significant effect | 266 ± 36 % of control | significant effects | 9 | 8 | 48 | 44 |  |  |  |
| COc1ccc(C(=O)NN=Cc2cc(Br)ccc2[O][V]2[O]C(c3ccc(OC)cc3)=NN=Cc3cc(Br)ccc3[O]2)cc1 [VC055, [V(L11)(HL11)]] |  | No statistically significant effect |  |  | 24 | 18 | 57 | 56 | 127 ± 5 |  |  |
| O=C(NN=Cc1cc(Br)ccc1[O][V]1[O]C(c2cc3ccccc3cc2O)=NN=Cc2cc(Br)ccc2[O]1)c1cc2ccccc2cc1O [VC067, [V(L12)(HL12)]] |  |  |  |  | 42 | 39 | 74 | 70 |  | reversed the decrease | 199 ± 3 % of control |

— publication PMC10892041, “Vanadium Complexes with Thioanilide Derivatives of Amino Acids: Inhibition of Human Phosphatases and Specificity in Various Cell Models of Metabolic Disturbances” (Pharmaceuticals, 2024)
